Experimental data taken from patent US20210121527A1, “METHODS OF TREATING MINIMAL RESIDUAL CANCER” (ICAHN SCHOOL OF MEDICINE AT MOUNT SINAI, priority 2018, published 2021).
pIC50: −log10 of the molar value.

Tests used:
MCF10A-HER2 cells = assay: Cell viability dose-response (Cell Titer Blue) with or without thapsigargin; format: cell-based; conditions: Homo sapiens, 48 hours, absence or presence of thapsigargin 2 nM, dashed line of FIG. 2D
Experimental: (§1) Reagents, cell culture, and treatments: EGF was obtained from PeproTech (Rocky Hill, N.J.) and used at 100 ng/ml. Thapsigargin was from Sigma (St. Louis, Mo.) and used at 2 nM. The ZR75.1-H2B-Dendra2 cell line was generated by stable transfection of the H2B-Dendra2 plasmid (Gurskaya et al., “Engineering of a Monomeric Green-to-Red Photoactivatable Fluorescent Protein Induced by Blue Light,” Nat. Biotechnol. 24:461-465 (2006), which is hereby incorporated by reference in its entirety). For 3D cultures, MCF10A-HER2, SKBR3, and ZR75.1-H2B-Dendra2 cells were plated in growth factor-reduced Matrigel (Corning, Corning, N.Y.) and grown as described previously (Avivar-Valderas et al., “Regulation of Autophagy during ECM Detachment is Linked to a Selective Inhibition of mTORC1 by PERK,” Oncogene 32(41):4932-40 (2013), which is hereby incorporated by reference in its entirety). When referring to “low density,” 3,500 cells/8-well were seeded, and for “high density” 20,000 cells/8-well. Treatments with vehicle (DMSO) or LY4 (2 μM) were replaced every 24 hours for 2D and every 48 hours for 3D cultures.

[1] = Tolerability in MMTV-HER2 female mice; format: in vivo, mouse
Experimental: (§2) Mice, tumor growth, and tissue processing: The FVB/N-Tg (MMTVneu) mouse strain was obtained from Jackson Laboratories (Sacramento, Calif.). […] Before being used in any experiment, females underwent one round of pregnancy and at least two weeks of no lactation after weaning. Females between 24-32 weeks of age were injected intraperitoneally with vehicle (90% corn oil, 10% ethanol) or LY4 (50 mpk) daily, for two weeks. For the combination treatment, females 24-32 weeks of age were treated daily by oral gavage with Abemaciclib (50 mpk) for 4 weeks before starting the treatment described earlier with LY4. Tumor volumes were measured using the formula (Dxd^2)/2, where D is the longest and d is the shortest diameter. For CTC count, animals were anesthetized and whole blood was extracted by cardiac puncture. Mammary glands, lungs, and tumors were collected and fixed in 10% buffered formalin overnight before paraffin embedding. The bone marrow from the two lower limbs was flushed with a 26 G needle and further processed by Ficoll density gradient centrifugation. For CTC as well as for DTC detection in bone marrow, tissues were depleted of mature hematopoietic cells by anti-mouse antibody-labeled magnetic bead separation (Miltenyi Biotec, San Diego, Calif.) before fixation in formalin for 20 minutes at 4° C.

ZR75.1 HER2^+ cells = assay: 3D Matrigel culture of ZR75.1-H2B-Dendra2 cells at low or high density, live cells; format: cell-based, human; conditions: 2 μM, day 2 to day 8, 3D Matrigel
Experimental: as §1

MMTV-HER2 mammary glands = assay: Mammary gland whole mount and histology of early lesions in MMTV-HER2 mice; format: in vivo, mouse; conditions: 50 mpk, two weeks
Experimental: as §2
Mammary gland whole mount staining. Mammary glands fixed in 10% buffered formalin were incubated in Carmine Alum stain (Carmine 0.2%, Aluminum potassium sulfate 0.5%) (Sigma, St. Louis, Mo.) for 2 days. Then, they were dehydrated and transferred to methyl salicylate solution before imaging using a stereomicroscope.
The scoring for P-HER2 levels is explained in FIG. 10A. For the scoring of CK8/18 and SMA in mammary gland ducts, 20 low magnification fields were evaluated per animal for the expression of CK8/18 as negative (0), low (1), or high (2) and the same for SMA and the sum of the two scores was considered as the final score (from 0 to 4).

[2] = system: HER2^+ metastases and DCCs; assay: Sequential Abemaciclib then LY4 treatment of MMTV-HER2 mice; format: in vivo, mouse; conditions: Abemaciclib 50 mpk 4 weeks; LY4 50 mpk
Experimental: as §2

[3] = system: Braf-mutant melanoma WM35 cells; assay: WM35 melanoma cell viability in 2D and 3D culture, GADD34 western blot; format: cell-based; conditions: after persistent treatment with Abemaciclib
Experimental: FIGS. 12A-12G show proposed mono or combination therapies that include the use of LY4 and experiments showing that the treatment of melanoma cells with the CDK4/6 inhibitor Abemaciclib in combination with LY4 differentially affects in vitro cell viability in 2D and 3D culture. FIG. 12A is a schematic illustration of the rationale for the combination of Abemaciclib and LY4. FIG. 12B is a bar graph showing the results of an in vitro treatment of Braf-mutant melanoma cells (WM35) with 0 nM, 10 nM, or 50 nM Abemaciclib for 1 week followed by 48 hour treatment with 2 μM LY4. FIG. 12C includes images of cells stained with DAPI following pre-treatment with Abemaciclib for 1 week, followed by treatment with 2 μM LY4. 5,000 cells were seeded on matrigel. In FIGS. 12D-12E, WM35 melanoma cells were pre-treated with Abemaciclib for 5 weeks, followed by treatment with LY4 in complete media and Abemaciclib. Cells were stained with Trypan blue to identify viable cells. FIG. 12D is a graph showing Abemaciclib sensitive cells. FIG. 12E is a graph showing Abemaciclib-resistant cells. FIG. 12F show images of cells stained with DAPI following pre-treatment with Abemaciclib for 5 weeks and co-treatment with 2 μM LY4 and Abemaciclib. 1,000 cells were seeded on matrigel. […]

Cc1cc(NC(=O)[C@H](O)c2cc(F)cc(F)c2)ccc1-c1cnc(N)c(C(=O)NC(C)C)c1 [LY4, 2-amino-5-[4-[[(2R)-2-(3,5-difluorophenyl)-2-hydroxy-acetyl]amino]-2-methyl-phenyl]-N-isopropyl-pyridine-3-carboxamide]
pIC50 (MCF10A-HER2 cells): ~8.05
bone marrow cell homeostasis and peripheral blood white cells (total cell counts) ([1]; 50 mpk i.p. daily, two weeks): no effect on total cell counts
tolerability, body weight ([1]; 50 mpk i.p. daily, two weeks): well tolerated, with no significant changes in body weight
glucose levels, blood cell counts, drinking and feeding behavior ([1]; doses of LY4 used, non-tumor or cancer bearing mice): did not significantly affect glucose levels, bone marrow, or peripheral blood cell counts, drinking and feeding behavior
survival of quiescent single cells (low density) (ZR75.1 HER2^+ cells): eradicated the quiescent single ZR75.1 HER2^+ cells
viability of cells seeded at high density (ZR75.1 HER2^+ cells): no significant effect on the viability
cytokeratin 8/18 expression in the luminal layer of mammary ducts (MMTV-HER2 mammary glands): increased expression of cytokeratin 8/18 in the luminal layer
number of occluded hyperplasias and DCIS-like lesions (MMTV-HER2 mammary glands): reduced to less than half of that in vehicle-treated animals
hollow lumen mammary gland ducts, share of structures (MMTV-HER2 mammary glands; around 20% in control females): more than 60%
GADD34 in primary tumor sections [2]: eliminated the expression of GADD34
viability of Abemaciclib resistant WM35 cells, 3D [3]: additive effect on decreasing viability in 3D cell culture
